Changes are numbered by the printed parent chain.
What was measured:
[1] = biological target: T1, C153A HDAC8 (Homo sapiens, UniProt Q9BY41, C153A); experiment: HDAC8 time-course inhibition; details: SAHA 0-8 μM, SAHA-OBn 0-10 μM (Figure S8)
T1 sequence (Q9BY41 1-377 C153A): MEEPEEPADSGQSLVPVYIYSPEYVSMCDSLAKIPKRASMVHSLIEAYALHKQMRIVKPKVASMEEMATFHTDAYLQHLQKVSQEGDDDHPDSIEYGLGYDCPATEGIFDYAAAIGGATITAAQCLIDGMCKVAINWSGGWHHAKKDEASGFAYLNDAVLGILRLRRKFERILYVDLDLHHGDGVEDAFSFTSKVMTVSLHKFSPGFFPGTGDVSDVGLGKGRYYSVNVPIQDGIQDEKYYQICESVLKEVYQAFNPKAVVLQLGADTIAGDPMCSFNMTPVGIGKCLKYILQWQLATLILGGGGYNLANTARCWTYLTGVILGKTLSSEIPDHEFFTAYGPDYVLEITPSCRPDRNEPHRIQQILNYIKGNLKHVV

[2] = human plasma stability; type: in vitro ADME; details: 1 h, 37 °C
[3] = biological target: T2, WT HDAC8 (Zn2+) (Homo sapiens, UniProt Q9BY41); experiment: HDAC8 time-course inhibition; type: biochemical
T2 sequence (Q9BY41 1-377): T1 sequence (Q9BY41 1-377 C153A) with A153C

[4] = tested on: tubulin acetylation in HH cells; experiment: western blot analysis of tubulin acetylation; type: cell-based; details: 6 and 20 μM, 4 h
[5] = tested on: HH (CTCL) cells; experiment: MTS cell proliferation assay; type: cell-based
[6] = reactivity with GSH; type: physicochemical; details: GSH 2 mM, 2 equiv, 50 mM HEPES pH 7.4, 2 h at 37 °C
[7] = aqueous stability under simulated physiological conditions; type: physicochemical; details: 50 mM HEPES, pH 7.4, 37 °C, 24 h
[8] = stability in the presence of assay components BSA or trypsin; type: physicochemical; details: BSA (5 mg/mL) or trypsin (5 mg/mL), 37 °C, 2 h; data not shown
[9] = tested on: tubulin acetylation in Jurkat cells; experiment: western blot analysis of tubulin acetylation; type: cell-based; details: 6 and 20 μM, 4 h

SMILES	inhibition of C153A HDAC8 (in words) [1]	percent parent compound remaining [2]	inhibition of HDAC8 [3] [%]	tubulin acetylation (western blot) [4]	less potent than SAHA in cells ([5]; HH and Jurkat cells)	maximal rate constant for inactivation ([3]; at saturating SAHA-TAP) [s^–1]	time of activity loss on preincubation of enzyme with inhibitor ([3]; preincubation, data not shown) [h]	reactivity with GSH (in words) [6]	stable to hydrolysis in the absence of thiols [7] [%]	stable in the presence of assay components [8] [%]	tubulin acetylation (western blot) [9]	effect on cell proliferation (in words) ([5]; all cells studied (HH, Jurkat, NIH/3T3))	inhibition of HDAC8 activity (in words) ([3]; inhibitor 2–10 μM)
O=C(CCCCCCC(=O)Nc1ccccc1)NO [SAHA, suberoylanilide hydroxamic acid, reference compound]	susceptible to inhibition	~60%	> 90	–	–	–	–	–	–	–	–	–	–
CC1=C(C)C(=O)C(CONC(=O)CCCCCCC(=O)Nc2ccccc2)=C(C)C1=O [SAHA-TAP]	–	Approximately 72%	–	increased tubulin acetylation	3–4 fold	0.0013	≤ 0.5	reacts rapidly with GSH	> 97	> 95	increased tubulin acetylation	–	–
O=C(CCCCCCC(=O)Nc1ccccc1)NOCc1ccccc1 [SAHA-OBn]	–	–	–	–	–	–	–	no change in the HPLC chromatogram	–	–	–	unaffected	does not inhibit

Reference: article PMC4467547 (Journal of Medicinal Chemistry, 2015)
